Source: patent publication US7053043B1, “Pharmaceutical compositions comprising synthetic peptide copolymers and methods for preventing and treating GVHD and HVGD” (Yeda Research and Development Co.Ltd., priority 1999, dated 2006)
Where “and” joins values, the source holds several entries; their conditions need not be identical. Equal values may be shown once.

Assays:
[1] = tested on: B10.D2 responder spleen cells with irradiated C57BL/6 spleen stimulator cells; test: MLR primary assay, Table 1; assay type: cell-based, mice; settings: [3H]-thymidine after 96 hours
skin graft rejection = test: Skin graft transplantation model for HVGD; assay type: in vivo, mice
Procedure: Recipient mice were dorsally transplanted with circular pieces of donor skin. Mice were inspected daily. Grafts were considered rejected when no viable donor epidermis remained. The results are expressed in mean survival time (MST). P values were obtained by analysis of variance (ANOVA).
[…] The first Cop 1 treatment on day −7 was injected sc in ICFA as a depot dose. Control mice were treated daily with PBS alone and PBS with ICFA on day −7 before transplantation.
Grafts were inspected daily. Rejection was considered positive when no viable donor epidermis remained. […]

For Glatiramer acetate [Cop 1], the “Primary Assay cpm” value ([1]; Cop 1 25 μg/well (Batch I)) was 15,953 cpm, the “Primary Assay cpm” value ([1]; Cop 1 50 μg/well (Batch I)) was 3,663 cpm and the “Primary Assay cpm” value ([1]; Cop 1 100 μg/well (Batch I)) was 283 cpm. For the same substance, the “MST ± SD (Mean Survival Time of skin graft)” value (“MST ± SD” below) (skin graft rejection; B10.D2 → BALB/c, H-2d, Cop 1 600 μg/day (ip+sc) from day −7) was 20.6 days and 20.6 ± 3.3 days, the “MST ± SD” value (skin graft rejection; B10.D2 → BALB/c, H-2d, Cop 1 600 μg/day (ip+sc) from day −7, listed as Copolymer 1) was 20.6 days and the “mean graft survival time (MST)” value (skin graft rejection; B10.D2 → BALB/c, 600 μg/day, text refers to Table 6, PBS 26 days) was 34 days. For the same substance, the “MST ± SD” value (skin graft rejection; B10.D2 → BALB/c, Cop 1 300 μg/day) was 20.4 ± 4.5 days, the “MST ± SD” value (skin graft rejection; B10.D2 → BALB/c, Cop 1 300 μg/day, listed as Copolymer 1) was 20.4 days and the “MST ± SD” value (skin graft rejection; B10PL → PL/J, H-2u, Cop 1 600 μg/day) was 17.6 ± 5.1. The “MST ± SD” value (skin graft rejection; C57BL → C3HSW, H-2b → H-2d, Cop 1 600 μg/day) was 18.5 ± 3.3 and the “MST ± SD” value (skin graft rejection; Haplotype H-2b, Cop 1 600 μg/day) was 17.7 ± 2.1.
